Results reported in patent publication US8551999B2, “Heterocyclic compound and pharmaceutical composition thereof” (Otsuka Pharmaceutical Co., Ltd., priority 2007, dated 2013).

SMILES	melting point
CN(c1ccc(Oc2ccc3cc(C(=O)N4CCN(Cc5ccc(OCC(F)(F)F)cc5)CC4)n(C)c3c2)nc1)S(=O)(=O)CC(F)(F)F.Cl	243.4 to 244.4 °C
CCCCCCCCOc1ccc(CN2CCN(C(=O)c3cc4cc(Oc5ccc(N(C)C(=O)c6ccc(C(F)(F)F)cc6)cn5)ccc4n3C)CC2)cc1.O=C(O)/C=C\C(=O)O [Example 414, N-Methyl-N-(6-{1-methyl-2-[4-(4-octyloxybenzyl)piperazine-1-carbonyl]-1H-indol-5-yloxy}pyridin-3-yl)-4-trifluoromethyl-benzamide maleate]	125 to 126 °C
Br.CN(C(=O)c1ccc(C(F)(F)F)cc1Cl)c1ccc(Oc2ccc3cc(C(=O)N4CCN(Cc5ccc(OCC(F)F)cc5)CC4)n(C)c3c2)nc1 [Example 448, 2-Chloro-N-[6-(2-{4-[4-(2,2-difluoroethoxy)benzyl]piperazine-1-carbonyl}-1-methyl-1H-indol-6-yloxy)pyridin-3-yl]-N-methyl-4-tri-fluoromethylbenzamide hydrobromide]	232.4 to 232.8 °C
Br.CN(C(=O)c1ccc(C(F)(F)F)cc1Cl)c1ccc(Oc2ccc3cc(C(=O)N4CCN(Cc5ccc(OCC(F)(F)F)cc5)CC4)n(C)c3c2)nc1 [Example 449, 2-Chloro-N-methyl-N-[6-(1-methyl-2-{4-[4-(2,2,2-trifluoroethoxy)-benzyl]piperazine-1-carbonyl}-1H-indol-6-yloxy)pyridin-3-yl]-4-trifluoromethylbenzamide hydrobromide]	239.5 to 240.6 °C
Br.CCc1ccc(CN2CCN(C(=O)c3cc4cc(Oc5ccc(NC(=O)c6ccc(C(F)(F)F)cc6)cn5)ccc4n3C)CC2)cc1 [Example 390, N-(6-{2-[4-(4-Ethylbenzyl)piperazine-1-carbonyl]-1-methyl-1H-indol-5-yloxy}pyridin-3-yl)-4-trifluoromethylbenzamide hydrobromide]	239 to 241 °C
CCOc1ccc(CN2CCN(C(=O)c3cc4cc(Oc5ccc(N(C)C(=O)c6ccc(Cl)c(Cl)c6)c(C)n5)ccc4n3C)CC2)cc1.O=C(O)/C=C\C(=O)O [Example 372, 3,4-Dichloro-N-(6-{2-[4-(4-ethoxybenzyl)piperazine-1-carbonyl]-1-methyl-1H-indol-5-yloxy}-2-methylpyridin-3-yl)-N-methylbenzamide maleate]	131 to 132 °C
Br.CN(C(=O)c1ccc(OC(F)F)cc1)c1ccc(Oc2ccc3cc(C(=O)N4CCN(Cc5ccc(OCC(F)F)cc5)CC4)n(C)c3c2)nc1 [Example 283, N-[6-(2-{4-[4-(2,2-Difluoroethoxy)benzyl]piperazine-1-carbonyl}-1-methyl-1H-indol-6-yloxy)pyridin-3-yl]-4-difluoromethoxy-N-methylbenzamide hydrobromide]	196.9 to 198.6 °C
Cc1ccc(S(=O)(=O)N(C)c2ccc(Oc3ccc4cc(C(=O)N5CCN(Cc6ccc(OC(C)C)nc6)CC5)n(C)c4c3)nc2)cc1 [Example 534, N-(6-{2-[4-(6-Isopropoxypyridin-3-ylmethyl)piperazine-1-carbonyl]-1-methyl-1H-indol-6-yloxy}pyridin-3-yl)-4,N-dimethyl-benzenesulfonamide]	131.1 to 132.8 °C
Br.CC(C)Oc1ccc(CN2CCN(C(=O)c3cc4ccc(Oc5ccc(NC(=O)c6ccc(Cl)c(Cl)c6)cn5)cc4n3C)CC2)cn1 [Example 466, 3,4-Dichloro-N-(6-{2-[4-(6-isopropoxypyridin-3-ylmethyl)-piperazine-1-carbonyl]-1-methyl-1H-indol-6-yloxy}pyridin-3-yl)-benzamide hydrobromide]	236.9 to 240.4 °C
Br.CN(C(=O)c1ccc(Cl)c(Cl)c1)c1ccc(Oc2ccc3cc(C(=O)N4CCN(Cc5ccc(OCC(F)(F)F)cc5)CC4)n(C)c3c2)nc1 [Example 484, 3,4-Dichloro-N-methyl-N-[6-(1-methyl-2-{4-[4-(2,2,2-trifluoro-ethoxy)benzyl]piperazine-1-carbonyl}-1H-indol-6-yloxy)pyridin-3-yl]benzamide hydrobromide]	197.1 to 201.5 °C
COc1ccc(CN2CCN(C(=O)c3cc4cc(Oc5ccc(CNC(=O)c6ccc(C(F)(F)F)cn6)cn5)ccc4n3C)CC2)cc1.O=C(O)C(=O)O.O=C(O)C(=O)O [Example 21, 5-Trifluoromethylpyridine-2-carboxylic acid (6-{2-[4-(4-methoxy-benzyl)piperazine-1-carbonyl]-1-methyl-1H-indol-5-yloxy}pyridin-3-yl)methylamide dioxalate]	152 to 154 °C
Br.Cn1c(C(=O)N2CCN(Cc3ccc4c(c3)OCO4)CC2)cc2cc(Oc3ccc(NC(=O)c4ccc(C(F)(F)F)cc4F)cn3)ccc21 [Example 316, N-{6-[2-(4-Benzo[1,3]dioxol-5-ylmethylpiperazine-1-carbonyl)-1-methyl-1H-indol-5-yloxy]pyridin-3-yl}-2-fluoro-4-trifluoromethyl-benzamide hydrobromide]	254 to 257 °C (dec.)
CC(C)CN1CCN(C(=O)c2cc3ccc(Oc4ccc(NC(=O)c5ccc(C(F)(F)F)cc5)cn4)cc3n2C)CC1.Cl	270.2 to 272.2 °C
CN(c1ccc(Oc2ccc3cc(C(=O)N4CCN(Cc5ccc(OCCF)cc5)CC4)n(C)c3c2)nc1)S(=O)(=O)c1ccc(Cl)c(Cl)c1 [Example 513, 3,4-Dichloro-N-[6-(2-{4-[4-(2-fluoroethoxy)benzyl]piperazine-1-carbonyl}-1-methyl-1H-indol-6-yloxy)pyridin-3-yl]-N-methyl-benzenesulfonamide]	195.2 to 196.8 °C
Br.Cc1c(Oc2ccc(N(C)C(=O)c3ccc(C(F)(F)F)cc3)cn2)ccc2c1cc(C(=O)N1CCN(Cc3ccc(C#N)cc3)CC1)n2C [Example 425, N-(6-{2-[4-(4-Cyanobenzyl)piperazine-1-carbonyl]-1,4-dimethyl-1H-indol-5-yloxy}pyridin-3-yl)-N-methyl-4-trifluoromethylbenzamide hydrobromide]	249 to 252 °C
COc1ccc(CN2CCN(C(=O)c3cc4c(C)c(Oc5ccc(NC(=O)c6ccc(C(F)(F)F)cc6)cn5)ccc4n3C)CC2)cc1 [Example 235, N-(6-{2-[4-(4-Methoxybenzyl)piperazine-1-carbonyl]-1,4-dimethyl-1H-indol-5-yloxy}pyridin-3-yl)-4-trifluoromethylbenzamide]	219 to 221 °C
Br.Br.CN(C(=O)c1ccc(C(F)(F)F)cc1)c1ccc(Oc2ccc3c(c2)cc(C(=O)N2CCN(Cc4ccc(OCC(F)(F)F)cc4)CC2)n3C)nc1 [Example 432, N-Methyl-N-[6-(1-methyl-2-{4-[4-(2,2,2-trifluoroethoxy)benzyl]-piperazine-1-carbonyl}-1H-indol-5-yloxy)pyridin-3-yl]-4-tri-fluoromethylbenzamide dihydrobromide]	211 to 212 °C
Cl.Cn1c(C(=O)N2CCN(Cc3ccc(OC(F)F)cc3)CC2)cc2ccc(Oc3ncc(NC(=O)c4ccc(C(F)(F)F)cc4)cn3)cc21	247.7 to 249.8 °C
Br.CN(C(=O)c1ccc(C(F)(F)F)cc1)c1ccc(Oc2ccc3c(c2)cc(C(=O)N2CCN(Cc4ccccc4)CC2)n3C)nc1 [Example 329, N-{6-[2-(4-Benzylpiperazine-1-carbonyl)-1-methyl-1H-indol-5-yl-oxy]pyridin-3-yl}-N-methyl-4-trifluoromethylbenzamide hydrobromide]	189 to 201 °C
Br.CCCOc1ccc(CN2CCN(C(=O)c3cc4ccc(Oc5ccc(NS(=O)(=O)c6ccc(C(F)(F)F)cc6)cn5)cc4n3C)CC2)cc1 [Example 511, N-(6-{1-Methyl-2-[4-(4-propoxybenzyl)piperazine-1-carbonyl]-1H-indol-6-yloxy}pyridin-3-yl)-4-trifluoromethylbenzenesulfonamide hydrobromide]	223.7 to 224.8 °C
Br.COc1ccc(CN2CCN(C(=O)c3cc4cc(Oc5ccc(NC(=O)c6ccc(C(F)(F)F)cc6C)cn5)ccc4n3C)CC2)cc1 [Example 14, N-(6-{2-[4-(4-Methoxybenzyl)piperazine-1-carbonyl]-1-methyl-1H-indol-5-yloxy}pyridin-3-yl)-2-methyl-4-trifluoromethylbenzamide hydrobromide]	249 to 251 °C
COc1ccc(CN2CCN(C(=O)c3cc4cc(Oc5ccc(N(C)C(=O)c6ccc(C(F)(F)F)cc6Cl)cn5)ccc4n3C)CC2)cc1.O=C(O)C(=O)O [Example 16, 2-Chloro-N-(6-{2-[4-(4-methoxybenzyl)piperazine-1-carbonyl]-1-methyl-1H-indol-5-yloxy}pyridin-3-yl)-N-methyl-4-trifluoromethyl-benzamide oxalate]	163 to 165 °C
CCN(C(=S)Nc1ccc(Cl)c(Cl)c1)c1ccc(Oc2ccc3c(c2)cc(C(=O)N2CCN(Cc4ccc5c(c4)OCO5)CC2)n3C)nc1.Cl	152 to 160 °C
Br.Cn1c(C(=O)N2CCN(Cc3ccc(OC(CF)CF)cc3)CC2)cc2ccc(Oc3ccc(NC(=O)c4ccc(C(F)(F)F)cc4Cl)cn3)cc21 [Example 537, 2-Chloro-N-[6-(2-{4-[4-(2-fluoro-1-fluoromethylethoxy)benzyl]-piperazine-1-carbonyl}-1-methyl-1H-indol-6-yloxy)pyridin-3-yl]-4-trifluoromethylbenzamide hydrobromide]	239.8 to 240.8 °C
Br.CN(C(=O)c1ccc(C(F)(F)F)cc1)c1ccc(Oc2ccc3cc(C(=O)N4CCN(Cc5ccc6c(c5)OC(F)(F)O6)CC4)n(C)c3c2)nc1 [Example 440, N-(6-{2-[4-(2,2-Difluorobenzo[1,3]dioxol-5-ylmethyl)piperazine-1-carbonyl]-1-methyl-1H-indol-6-yloxy}pyridin-3-yl)-N-methyl-4-tri-fluoromethylbenzamide hydrobromide]	243.3 to 245.1 °C
Cn1c(C(=O)N2CCN(Cc3ccccn3)CC2)cc2cc(Oc3ncc(NC(=O)c4ccc(C(F)(F)F)cc4)cn3)ccc21 [Example 382, N-{2-[1-Methyl-2-(4-pyridin-2-ylmethylpiperazine-1-carbonyl)-1H-indol-5-yloxy]pyrimidin-5-yl}-4-trifluoromethylbenzamide]	181 to 182 °C
Cc1cc(C(F)(F)F)ccc1C(=O)Nc1ccc(Oc2ccc3cc(C(=O)N4CCN(Cc5ccc(OC(C)C)cc5)CC4)n(C)c3c2)nc1.Cl	197.7 to 199.3 °C
